From US20200368364A1, “CYSTEINE PEPTIDE-ENABLED ANTIBODIES” (City of Hope, priority 2016, published 2020)

How the values were obtained:
[1] = system: cetuximab or the meditope-enabled trastuzumab; experiment: Lifetime of the meditope-Fab interaction; assay type: binding; conditions: 37° C.
Excerpt: Since the cyclic, twelve residue peptide binds in a hole that runs through the middle of the Fab arm, Applicants have named it a meditope. Antigen binding is not altered after grafting or in the presence of the meditope^14-15. As such, Applicants understood that they could use the meditope interaction as a hitch for the delivery of cytotoxins, imaging agents, or biologics. […] Applicants further improved the lifetime by creating a mechanical bond by modifying the arginine at position 8 with an azide, threading it through the Fab hole, and using click chemistry to sterically block its dissociation. While the lifetime of this mechanically interlocked Fab complex is difficult to ascertain, Applicants were capable of imaging tumors in animal xenografts.

[2] = system: mutated I83 trastuzumab memAb (I83 mutated to glutamate); experiment: SPR of meditope peptide variants binding to immobilized memAb variant; conditions: SPR at 37° C.; original meditope; vs original trastuzumab memAb
Method: FIG. 3A-3H. […] FIG. 3E-H) SPR sensograms collected at 37° C.

SKBR3 cells = experiment: Cell viability (CellTiter-Glo) for DM1 and MMAE conjugates; assay type: cell-based; conditions: 72 h, read-out: EC50 (cell viability / lysis)

Substance | lifetime of the meditope peptide on the Fab [1] | increase in affinity with I83 mutated to glutamate [2] | EC50 (SKBR3 cells) [pM]
Ac-CQFDLSTRRLKC-Am (Ac-CQFDLSTRRLKC-NH2; not fully specified (bridges); printed as Ac-CQFDLSTRRLKC-Am; also: cyclic, kind not given here) [original meditope, serine at position 6] | seconds | ~25 | –
trastuzumab emtansine [clinical DM1] | – | – | 93
